These results are taken from patent US7750003B2, “Compounds-943” (AstraZeneca AB, priority 2006, dated 2010).

Chain of recombinant mTOR (FLAG-tagged, residues 1362-2549) (P42345 1362-2549): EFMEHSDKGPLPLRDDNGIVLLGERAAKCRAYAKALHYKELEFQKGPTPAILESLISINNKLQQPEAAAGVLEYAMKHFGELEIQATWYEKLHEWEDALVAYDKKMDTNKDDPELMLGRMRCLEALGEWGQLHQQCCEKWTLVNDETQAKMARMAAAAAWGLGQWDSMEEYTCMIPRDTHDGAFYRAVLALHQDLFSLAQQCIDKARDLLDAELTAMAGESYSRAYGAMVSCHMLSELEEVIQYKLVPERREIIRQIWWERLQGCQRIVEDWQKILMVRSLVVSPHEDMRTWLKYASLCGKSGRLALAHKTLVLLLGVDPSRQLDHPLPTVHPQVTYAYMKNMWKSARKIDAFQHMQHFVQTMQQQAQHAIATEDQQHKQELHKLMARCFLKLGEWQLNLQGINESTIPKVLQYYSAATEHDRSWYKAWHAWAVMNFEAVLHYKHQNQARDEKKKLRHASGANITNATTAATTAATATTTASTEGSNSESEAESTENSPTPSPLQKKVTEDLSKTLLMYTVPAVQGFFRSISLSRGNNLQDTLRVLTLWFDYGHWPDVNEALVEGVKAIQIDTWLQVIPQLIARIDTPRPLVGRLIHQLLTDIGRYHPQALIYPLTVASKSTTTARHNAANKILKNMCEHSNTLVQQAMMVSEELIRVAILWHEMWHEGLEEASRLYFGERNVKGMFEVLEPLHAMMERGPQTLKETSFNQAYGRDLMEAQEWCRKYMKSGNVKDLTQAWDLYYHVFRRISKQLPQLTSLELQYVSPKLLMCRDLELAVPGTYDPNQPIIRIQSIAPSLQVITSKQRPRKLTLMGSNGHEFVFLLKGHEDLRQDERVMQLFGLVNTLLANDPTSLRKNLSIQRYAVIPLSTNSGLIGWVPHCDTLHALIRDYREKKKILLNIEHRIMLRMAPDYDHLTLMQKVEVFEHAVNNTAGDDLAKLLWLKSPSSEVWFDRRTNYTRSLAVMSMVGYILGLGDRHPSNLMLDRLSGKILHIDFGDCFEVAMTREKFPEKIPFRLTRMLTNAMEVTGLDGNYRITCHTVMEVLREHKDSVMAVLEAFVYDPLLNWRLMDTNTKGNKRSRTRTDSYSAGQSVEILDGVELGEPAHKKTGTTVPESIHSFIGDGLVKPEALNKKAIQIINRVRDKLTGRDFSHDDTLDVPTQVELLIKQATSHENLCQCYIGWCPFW

The test has as its target recombinant mTOR (FLAG-tagged, residues 1362-2549) (Homo sapiens, UniProt P42345). The test is described as follows: In vitro mTOR kinase assay (Test (a), AlphaScreen). Particulars: ATP 20 μM, read-out: Test (a): IC50 versus mTOR kinase. The test is classed as biochemical. Here is the method:
(a) In Vitro mTOR Kinase Assay
Following expression in the mammalian HEK293 cell line, expressed protein was purified using the FLAG epitope tag using standard purification techniques.
Aliquots (2 μl) of each compound dilution were placed into a well of a Greiner 384-well low volume (LV) white polystyrene plate (Greiner Bio-one).
These assay solutions were incubated for 2 hours at room temperature.
The resultant signals arising from laser light excitation at 680 nm were read using a Packard Envision instrument.
The phosphorylated biotinylated peptide that is associated with AlphaScreen Streptavidin donor beads forms a complex with the p70 S6 Kinase (T389) 1A5 Monoclonal Antibody that is associated with Alphascreen Protein A acceptor beads. Upon laser light excitation at 680 nm, the donor bead: acceptor bead complex produces a signal that can be measured. Accordingly, the presence of mTOR kinase activity results in an assay signal. In the presence of an mTOR kinase inhibitor, signal strength is reduced.
mTOR enzyme inhibition for a given test compound was expressed as an IC50 value.
Regarding `CCNC(=O)Nc1ccc(-c2nc(CS(C)(=O)=O)cc(N3CCOC[C@@H]3C)n2)cc1` [Example 1, 1-Ethyl-3-[4-[4-[(3S)-3-methylmorpholin-4-yl]-6-(methylsulfonylmethyl)pyrimidin-2-yl]phenyl]urea], the IC50 was 0.0062 µM.
Turning to `COc1ccc(NC(=O)Nc2ccc(-c3nc(CS(C)(=O)=O)cc(N4CCOC[C@@H]4C)n3)cc2)cc1` [Example 1a, 1-(4-methoxyphenyl)-3-[4-[4-[(3S)-3-methylmorpholin-4-yl]-6-(methylsulfonylmethyl)pyrimidin-2-yl]phenyl]urea], the IC50 was 0.062 µM.
With `CC(C)NC(=O)Nc1ccc(-c2nc(CS(C)(=O)=O)cc(N3CCOC[C@@H]3C)n2)cc1` [Example 1c, 3-[4-[4-[(3S)-3-methylmorpholin-4-yl]-6-(methylsulfonylmethyl)pyrimidin-2-yl]phenyl]-1-propan-2-yl-urea] the figure was 0.078 µM; with `C[C@H]1COCCN1c1cc(CS(C)(=O)=O)nc(-c2ccc(NC(=O)Nc3ccc(F)cc3)cc2)n1` [Example 1e, 3-(4-fluorophenyl)-1-[4-[4-[(3S)-3-methylmorpholin-4-yl]-6-(methylsulfonylmethyl)pyrimidin-2-yl]phenyl]urea], 0.32 µM.
As to `C[C@H]1COCCN1c1cc(CS(C)(=O)=O)nc(-c2ccc(NC(=O)Nc3ccc(F)cc3)c(F)c2)n1` [Example 1f, 1-[2-fluoro-4-[4-[(3S)-3-methylmorpholin-4-yl]-6-(methylsulfonylmethyl)pyrimidin-2-yl]phenyl]-3-(4-fluorophenyl)urea], the IC50 came to 0.36 µM.
With `C[C@H]1COCCN1c1cc(CS(C)(=O)=O)nc(-c2ccc(NC(=O)Nc3ccccc3)c(F)c2)n1` [Example 1g, 1-[2-fluoro-4-[4-[(3S)-3-methylmorpholin-4-yl]-6-(methylsulfonylmethyl)pyrimidin-2-yl]phenyl]-3-phenyl-urea] the figure was 0.96 µM; with `COc1cc(-c2nc(CS(C)(=O)=O)cc(N3CCOC[C@@H]3C)n2)ccc1NC(=O)Nc1ccc(F)cc1` [Example 1h, 3-(4-fluorophenyl)-1-[2-methoxy-4-[4-[(3S)-3-methylmorpholin-4-yl]-6-(methylsulfonylmethyl)pyrimidin-2-yl]phenyl]urea], 1.2 µM.
For `COc1ccc(NC(=O)Nc2ccc(-c3nc(CS(C)(=O)=O)cc(N4CCOC[C@@H]4C)n3)cc2OC)cc1` [Example 1i, 3-[2-methoxy-4-[4-[(3S)-3-methylmorpholin-4-yl]-6-(methylsulfonylmethyl)pyrimidin-2-yl]phenyl]-1-(4-methoxyphenyl)urea], the IC50 turned out to be 0.55 µM.
The value for `C[C@H]1COCCN1c1cc(CS(C)(=O)=O)nc(-c2ccc(NC(=O)Nc3ccc(F)cc3)nc2)n1` [Example 1j, 3-(4-fluorophenyl)-1-[5-[4-[(3S)-3-methylmorpholin-4-yl]-6-(methylsulfonylmethyl)pyrimidin-2-yl]pyridin-2-yl]urea] was 0.043 µM; that for `C[C@H]1COCCN1c1cc(CS(C)(=O)=O)nc(-c2ccc(NC(=O)N3CCC3)cc2)n1` [Example 2, N-[4-[4-[(3S)-3-methylmorpholin-4-yl]-6-(methylsulfonylmethyl)pyrimidin-2-yl]phenyl]azetidine-1-carboxamide] was 0.31 µM.
With `COCCN(C)C(=O)Nc1ccc(-c2nc(CS(C)(=O)=O)cc(N3CCOC[C@@H]3C)n2)cc1` [Example 2a, 1-(2-methoxyethyl)-1-methyl-3-[4-[4-[(3S)-3-methylmorpholin-4-yl]-6-(methylsulfonylmethyl)pyrimidin-2-yl]phenyl]urea] the figure was 2.3 µM.
Consider `C[C@H]1COCCN1c1cc(CS(C)(=O)=O)nc(-c2ccc(NC(=O)N(C)C)cc2)n1` [Example 2b, 1,1-dimethyl-3-[4-[4-[(3S)-3-methylmorpholin-4-yl]-6-(methylsulfonylmethyl)pyrimidin-2-yl]phenyl]urea], for which the IC50 came out at 0.29 µM.
In the case of `COc1cc(-c2nc(CS(C)(=O)=O)cc(N3CCOC[C@@H]3C)n2)ccc1NC(=O)N(C)C` [Example 2c, 3-[2-methoxy-4-[4-[(3S)-3-methylmorpholin-4-yl]-6-(methylsulfonylmethyl)pyrimidin-2-yl]phenyl]-1,1-dimethyl-urea], the half-maximal inhibitory concentration (IC50) came out at 1.2 µM.
Turning to `CNC(=O)Nc1ccc(-c2nc(CS(C)(=O)=O)cc(N3CCOC[C@@H]3C)n2)cc1` [Example 2d, 1-methyl-3-[4-[4-[(3S)-3-methylmorpholin-4-yl]-6-(methylsulfonylmethyl)pyrimidin-2-yl]phenyl]urea], the concentration for half-maximal inhibition (IC50) stood at 0.0068 µM.
For the molecule `CNC(=O)Nc1ccc(-c2nc(CS(C)(=O)=O)cc(N3CCOC[C@@H]3C)n2)cc1F` [Example 2e, 3-[2-fluoro-4-[4-[(3S)-3-methylmorpholin-4-yl]-6-(methylsulfonylmethyl)pyrimidin-2-yl]phenyl]-1-methyl-urea], the IC50 worked out at 0.038 µM.
For `C[C@H]1COCCN1c1cc(CS(C)(=O)=O)nc(-c2ccc(NC(=O)N(C)C)c(F)c2)n1` [Example 2f, 3-[2-fluoro-4-[4-[(3S)-3-methylmorpholin-4-yl]-6-(methylsulfonylmethyl)pyrimidin-2-yl]phenyl]-1,1-dimethyl-urea], the IC50 stood at 1.7 µM.
The value for `Cc1cc(-c2nc(CS(C)(=O)=O)cc(N3CCOC[C@@H]3C)n2)ccc1NC(=O)Nc1ccccc1` [Example 3, 1-[2-Methyl-4-[4-[(3S)-3-methylmorpholin-4-yl]-6-(methylsulfonylmethyl)pyrimidin-2-yl]phenyl]-3-phenyl-urea] was 1.5 µM; that for `CCNC(=O)Nc1ccc(-c2nc(CS(C)(=O)=O)cc(N3CCOC[C@@H]3C)n2)cc1OC` [Example 3a, 1-ethyl-3-[2-methoxy-4-[4-[(3S)-3-methylmorpholin-4-yl]-6-(methylsulfonylmethyl)pyrimidin-2-yl]phenyl]urea] was 0.1 µM.
The value for `C[C@H]1COCCN1c1cc(CS(C)(=O)=O)nc(-c2ccc(NC(=O)Nc3ccccc3)c(Cl)c2)n1` [Example 3b, 1-[2-Chloro-4-[4-[(3S)-3-methylmorpholin-4-yl]-6-(methylsulfonylmethyl)pyrimidin-2-yl]phenyl]-3-phenyl-urea] was 0.44 µM; that for `C[C@H]1COCCN1c1cc(CS(C)(=O)=O)nc(-c2cccc(NC(=O)Nc3ccccc3)c2)n1` [Example 3c, 1-[3-[4-[(3S)-3-Methylmorpholin-4-yl]-6-(methylsulfonylmethyl)pyrimidin-2-yl]phenyl]-3-phenyl-urea] was 3.3 µM.
As to `C[C@H]1COCCN1c1cc(CS(C)(=O)=O)nc(-c2ccc(N(C)C(=O)Nc3ccccc3)cc2)n1` [Example 3d, 1-Methyl-1-[4-[4-[(3S)-3-methylmorpholin-4-yl]-6-(methylsulfonylmethyl)pyrimidin-2-yl]phenyl]-3-phenyl-urea], the IC50 amounted to 2.9 µM.
With `CCNC(=O)Nc1ccc(-c2nc(CS(C)(=O)=O)cc(N3CCOC[C@@H]3C)n2)cc1F` [Example 4, 1-Ethyl-3-[2-fluoro-4-[4-[(3S)-3-methylmorpholin-4-yl]-6-(methylsulfonylmethyl)pyrimidin-2-yl]phenyl]urea] the figure was 0.031 µM; with `C[C@H]1COCCN1c1cc(CS(C)(=O)=O)nc(-c2ccc(NC(=O)N3CCC3)c(F)c2)n1` [Example 4a, N-[2-Fluoro-4-[4-[(3S)-3-methylmorpholin-4-yl]-6-(methylsulfonylmethyl)pyrimidin-2-yl]phenyl]azetidine-1-carboxamide], 1 µM; with `CC(C)NC(=O)Nc1ccc(-c2nc(CS(C)(=O)=O)cc(N3CCOC[C@@H]3C)n2)cc1F` [Example 4b, 3-[2-fluoro-4-[4-[(3S)-3-methylmorpholin-4-yl]-6-(methylsulfonylmethyl)pyrimidin-2-yl]phenyl]-1-propan-2-yl-urea], 0.14 µM.
In the case of `COCCNC(=O)Nc1ccc(-c2nc(CS(C)(=O)=O)cc(N3CCOC[C@@H]3C)n2)cc1` [Example 4d, 1-(2-methoxyethyl)-3-[4-[4-[(3S)-3-methylmorpholin-4-yl]-6-(methylsulfonylmethyl)pyrimidin-2-yl]phenyl]urea], the IC50 was found to be 0.17 µM.
With `COCCNC(=O)Nc1ccc(-c2nc(CS(C)(=O)=O)cc(N3CCOC[C@@H]3C)n2)cc1OC` [Example 4e, 1-(2-methoxyethyl)-3-[2-methoxy-4-[4-[(3S)-3-methylmorpholin-4-yl]-6-(methylsulfonylmethyl)pyrimidin-2-yl]phenyl]urea] the figure was 0.6 µM.
Turning to `COCCN(C)C(=O)Nc1ccc(-c2nc(CS(C)(=O)=O)cc(N3CCOC[C@@H]3C)n2)cc1F` [Example 4f, 3-[2-Fluoro-4-[4-[(3S)-3-methylmorpholin-4-yl]-6-(methylsulfonylmethyl)pyrimidin-2-yl]phenyl]-1-(2-methoxyethyl)-1-methyl-urea], the half-inhibitory concentration (IC50) was found to be 0.68 µM.
`COCCNC(=O)Nc1ccc(-c2nc(CS(C)(=O)=O)cc(N3CCOC[C@@H]3C)n2)cc1F` [Example 4g, 3-[2-fluoro-4-[4-[(3S)-3-methylmorpholin-4-yl]-6-(methylsulfonylmethyl)pyrimidin-2-yl]phenyl]-1-(2-methoxyethyl)urea]: the IC50 was determined as 0.83 µM.
Turning to `CCNC(=O)Nc1ccc(-c2nc(CO)cc(N3CCOC[C@@H]3C)n2)cc1` [Example 5, 1-Ethyl-3-[4-[4-(hydroxymethyl)-6-[(3S)-3-methylmorpholin-4-yl]pyrimidin-2-yl]phenyl]urea], the half-inhibitory concentration (IC50) was 0.063 µM.
With `C[C@H]1COCCN1c1cc(CO)nc(-c2ccc(NC(=O)Nc3ccccc3)cc2)n1` [Example 6, 1-[4-[4-(Hydroxymethyl)-6-[(3S)-3-methylmorpholin-4-yl]pyrimidin-2-yl]phenyl]-3-phenyl-urea] the figure was 0.56 µM.

As usually defined, the IC50 is the concentration that inhibits the measured activity by half.
